Laboratory results reported in article PMC11844072, “Novel 5,6-dichlorobenzimidazole derivatives as dual BRAFWT and BRAFV600E inhibitors: design, synthesis, anti-cancer activity and molecular dynamics simulations” (BMC Chemistry, 2025).

Assays:
Format in all cases: cell-based
[1] = test system: CCRF-CEM; assay: NCI 5-dose assay; settings: Homo sapiens, Leukemia
Method in brief: (§1)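 Growth measured by sulforhodamine B protein staining (515 nm) after 48 h drug exposure at 37 °C, following 24 h plating in RPMI 1640 with 5% FBS and 2 mM L-glutamine. Compounds first tested at one 10 µM dose, then five-dose series (10-fold or ½ log steps); percent growth relative to time-zero and untreated wells.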

[2] = test system: 786-0; assay: NCI 5-dose assay; settings: Homo sapiens; 786-0, Renal cancer
Method in brief: as §1

[3] = test system: SW-620; assay: NCI 5-dose assay; settings: Homo sapiens; SW-620, Colon cancer
Method in brief: as §1

[4] = test system: MDA-MB-468; assay: NCI 5-dose assay; settings: Homo sapiens; MDA-MB-468, Breast cancer
Method in brief: as §1

[5] = test system: MDA-MB-435; assay: NCI 5-dose assay; settings: Homo sapiens; MDA-MB-435, Melanoma
Method in brief: as §1

[6] = test system: OVCAR-5; assay: NCI 5-dose assay; settings: Homo sapiens; OVCAR-5, Ovarian cancer
Method in brief: as §1

[7] = test system: MCF7; assay: NCI 5-dose assay; settings: Homo sapiens; MCF7, Breast cancer
Method in brief: as §1

[8] = test system: NCI/ADR-RES; assay: NCI 5-dose assay; settings: Homo sapiens, Ovarian cancer
Method in brief: as §1

[9] = test system: HSF cell line; assay: Cytotoxicity on HSF normal cell line (SRB assay); settings: HSF normal human skin fibroblast; mean of three ± SD
Procedure: The dichlorobenzimidazole derivative 10h was tested in Nawah scientific—Cairo—Egypt for its cytotoxic activity on HSF cell line as stated in the Additional file A [53, 54].
6. Analysis of 10h on HSF normal cell line
Human Skin Fibroblast (HSF) was obtained from Nawah Scientific Inc., (Mokatam, Cairo, Egypt). Cells were maintained in DMEM media supplemented with […] of streptomycin, 100 units/mL of penicillin and 10% of heat-inactivated fetal bovine serum in humidified, 5% (v/v) CO2atmosphere at 37 °C. Cell viability was assessed by SRB assay. Aliquots of 100 μL cell suspension (5x10^3 cells) were in 96-well plates and incubated in complete media for 24 h. Cells were treated with another aliquot of 100 μL media containing drugs at various concentrations.
After drug exposure, cells were fixed by replacing media with 150 μL of 10% TCA and incubated at 4 °C for 1 h. The TCA solution was removed, and the cells were washed 5 times with distilled water. Aliquots of 70 μL SRB solution (0.4% w/v) were added and incubated in a dark place at room temperature for 10 min. Plates were washed 3 times with 1% acetic acid and allowed to air-dry overnight. Then, 150 μL of TRIS (10 mM) was added to dissolve protein-bound SRB stain; the absorbance was measured at 540 nm using an Infinite F50 microplate reader (TECAN, Switzerland).
6.2. Dose response curve of 10h on HSF normal cell line
Figure 66. […]

Work on COC(=O)COc1ccc(C=NNC(=O)Cn2c(-c3ccc(OC)cc3)nc3cc(Cl)c(Cl)cc32)cc1 [Compound 10h, Methyl-2-(4-((2-(2-(5,6-dichloro-2-(4-methoxyphenyl)-1H-benzo[d]imidazol-1-yl)acetyl)hydrazono)methyl)phenoxy)acetate] yielded a GI50 [1] of 4.78 µM, a GI50 [2] of 3.01 µM and a GI50 [3] of 22.2 µM. For the same compound, the GI50 [4] was 1.68 µM, the GI50 [5] was 14.8 µM and the GI50 [6] was 34.3 µM. The GI50 [7] was 4.25 µM, the GI50 [8] was 5.22 µM and the IC50 [9] was > 100 µM.

COC(=O)COc1cc(C=NNC(=O)Cn2c(-c3ccc(OC)cc3)nc3cc(Cl)c(Cl)cc32)ccc1OC [Compound 10o, Methyl-2-(5-((2-(2-(5,6-dichloro-2-(4-methoxyphenyl)-1H-benzo[d]imidazol-1-yl)acetyl)hydrazono)methyl)-2-methoxyphenoxy)acetate] was tested, and the GI50 [1] was > 100 µM, the GI50 [2] was 17.9 µM and the GI50 [3] was > 100 µM. The GI50 [4] was 4.4 µM, the GI50 [5] was > 100 µM and the GI50 [6] was > 100 µM. The GI50 [7] was 100 µM and the GI50 [8] was 81.2 µM.

For COC(=O)COc1ccc(C=NNC(=O)Cn2c(-c3ccc(OC)cc3)nc3cc(Cl)c(Cl)cc32)cc1OC [Compound 10p, Methyl-2-(4-((2-(2-(5,6-dichloro-2-(4-methoxyphenyl)-1H-benzo[d]imidazol-1-yl)acetyl)hydrazono)methyl)-2-methoxyphenoxy)acetate], the GI50 [1] was > 72.5 µM, the GI50 [2] was 2.21 µM and the GI50 [3] was > 72.5 µM. It also gave a GI50 [4] of 1.48 µM, a GI50 [5] of 22.9 µM and a GI50 [6] of 24 µM. For the same compound, the GI50 [7] was > 72.5 µM and the GI50 [8] was 3.05 µM.
